Values joined by “and” are separate entries in the source; they are usually repeats but may differ in a detail not shown here. Equal values may be shown once. Read-outs that look alike come from different tables or passages of the source.
Columns and labels:
[1] = biological target: T1, SARS-CoV-2 3CL^pro (Severe acute respiratory syndrome coronavirus 2, UniProt P0DTD1, Q3569A)
[2] = biological target: T1, SARS-CoV-2 3CL^pro; remark: listed apart in the source
[3] = biological target: T1, SARS-CoV-2 3CL^pro; conditions: pH 6.9

VALQ↓GAHRVALQ↓XAHYR [Leu]
cleavage at second (test) site with P1' X [1]: minimal cleavage

AAVALQ↓XAHHYAYR [S]
^app(kcat/KM) [1]: 1,528 M^−1s^−1
^app(kcat/KM) ([1]; pH 6.9): 1,519.1 ± 6.2 M^−1s^−1

AAVALQ↓XAHHYAYR [listing 1 of 7 here]
^app(kcat/KM) ([1]; pH 6.9): No cleavage

AAVALX↓SAHHYAYR [P1-His]
^app(kcat/KM) [1]: 222 M⁻¹ s⁻¹

Mca-RVALQ↓XAHYK(Dnp)RR [QFS1-S1']
kcat/KM [2]: 13,696.8 M^−1·s^−1 and 13,696.8 ± 269

AAVALQ↓XAHHYAYR [I]
^app(kcat/KM) ([1]; pH 6.9): No cleavage

AAVALQ↓XAHHYAYR [W]
^app(kcat/KM) ([1]; pH 6.9): No cleavage

Mca-RVALQ↓XAHYK(Dnp)RR [QFS1-G1']
kcat/KM [2]: 4,515.7 M^−1·s^−1 and 4,515.7 ± 248

AAVALQ↓XAHHYAYR [listing 2 of 7 here]
^app(kcat/KM) ([1]; pH 6.9): No cleavage

AAVALQ↓XAHHYAYR [N]
^app(kcat/KM) ([1]; pH 6.9): 71.8 ± 3.2 M⁻¹ s⁻¹

AAVALQ↓XAHHYAYR [D]
^app(kcat/KM) ([1]; pH 6.9): No cleavage

AAVALQ↓XAHHYAYR [listing 3 of 7 here]
^app(kcat/KM) ([1]; pH 6.9): 1,522.0 ± 7.6 M^−1s^−1

AAVALQ↓XAHHYAYR [listing 4 of 7 here]
^app(kcat/KM) ([1]; pH 6.9): 45.0 ± 0.6 M⁻¹ s⁻¹

AAVALM↓SAHHYAYR [P1-Met]
^app(kcat/KM) [1]: 37 M⁻¹ s⁻¹
^app(kcat/KM) [3]: 37 M⁻¹ s⁻¹

AAVALQ↓XAHHYAYR [listing 5 of 7 here]
^app(kcat/KM) ([1]; pH 6.9): No cleavage

AAVALQ↓XAHHYAYR [listing 6 of 7 here]
^app(kcat/KM) ([1]; pH 6.9): No cleavage

AAVALQ↓XAHHYAYR [listing 7 of 7 here]
^app(kcat/KM) ([1]; pH 6.9): No cleavage

AAVALQ↓XAHHYAYR [T]
^app(kcat/KM) ([1]; pH 6.9): No cleavage

AAVALQ↓XAHHYAYR [E]
^app(kcat/KM) ([1]; pH 6.9): No cleavage

Mca-RVALQ↓XAHYK(Dnp)RR [QFS1-A1']
kcat/KM [2]: 13,131.0 M^−1·s^−1 and 13,131.0 ± 207

AAVALQ↓XAHHYAYR [P]
^app(kcat/KM) ([1]; pH 6.9): No cleavage

AAVALQ↓XAHHYAYR [K]
^app(kcat/KM) ([1]; pH 6.9): No cleavage

AAVALQ↓XAHHYAYR [C]
^app(kcat/KM) ([1]; pH 6.9): No cleavage

AAVALQ↓XAHHYAYR [G]
^app(kcat/KM) ([1]; pH 6.9): 1,079.1 ± 12.6 M^−1s^−1

AAVALQ↓XAHHYAYR [M]
^app(kcat/KM) ([1]; pH 6.9): 65.8 ± 1.4 M⁻¹ s⁻¹

From paper PMC11237654, “Optimization of quenched fluorescent peptide substrates of SARS-CoV-2 3CL^pro main protease (Mpro) from proteomic identification of P6—P6' active site specificity” (Journal of Virology, 2024)
